Data taken from US6355799B1, “Substituted benzene compounds, process for their preparation, and herbicidal and defoliant compositions containing them” (ISK Americas Incorporated, priority 1997, dated 2002).

How the values were obtained:
Type in all cases: in vivo
[1] = system: upland rice (Oryza sp., var. Tebonnet, RICE); assay: Post-emerge test, crop safety; details: post-emerge, crop damage rating 0-100 at 14 days after application
Method in brief: (§1)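 Applied at 15–1000 g ai/ha from acetone in 187 l/ha spray volume. Post-emergence applications included 0.25% v/v non-ionic surfactant and reached plants sown 8–21 days before. Pre-emergence applications were incorporated by surface watering. Efficacy or crop damage was rated on a 0–100 scale after 14 days.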

[2] = system: field corn (Zea mays L., var. Dekalb 535, CORN); assay: Post-emerge test, crop safety; details: post-emerge, crop damage rating 0-100 at 14 days after application
Method in brief: as §1

[3] = system: redroot pigweed (Amaranthus retroflexus, AMARE); assay: Pre-emerge test, greenhouse herbicide activity screening; details: pre-emerge, phytotoxicity rating 0-100 at 14 days after application
Method in brief: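 Rating: 0–100 visual injury, 14 DAA. Application: acetone, 187 l/ha, 15–1000 g ai/ha, flat-fan track sprayer with nozzle 40–45 cm above soil or canopy. Post-emerge runs used 0.25% v/v surfactant on 2–3 leaf plants.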

[4] = system: large crabgrass (Digitaria sanguinalis, DIGSA); assay: Post-emerge test, greenhouse herbicide activity screening; details: post-emerge, phytotoxicity rating 0-100 at 14 days after application
Method in brief: (§2)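 Compounds in acetone were track-sprayed at 187 l/ha, 15–1000 g ai/ha, onto sandy loam pots. Pre-emerge seeds were sown one day before spraying, with surface watering afterwards. Post-emerge plants were at the 2–3 leaf stage and sprayed with 0.25% v/v non-ionic surfactant. Injury was rated 0–100 at 14 days.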

[5] = system: barnyardgrass (Echinochloa crus-galli, ECHCG); assay: as above; details: post-emerge, phytotoxicity rating 0-100 at 14 days after application
Method in brief: as §2

[6] = system: green foxtail (Setaria viridis, SETVI); assay: as above; details: post-emerge, phytotoxicity rating 0-100 at 14 days after application
Method in brief: as §2

[7] = system: redroot pigweed (Amaranthus retroflexus, AMARE); assay: as above; details: post-emerge, phytotoxicity rating 0-100 at 14 days after application
Method in brief: as §2

[8] = system: sicklepod (Cassia obtusifolia, CASOB); assay: as above; details: post-emerge, phytotoxicity rating 0-100 at 14 days after application
Method in brief: as §2

[9] = system: johnsongrass (Sorghum halepense, SORHA); assay: as above; details: post-emerge, phytotoxicity rating 0-100 at 14 days after application
Method in brief: as §2

[10] = system: velvetleaf (Abutilon theophrasti, ABUTH); assay: as above; details: post-emerge, phytotoxicity rating 0-100 at 14 days after application
Method in brief: as §2

[11] = system: lambsquarters (Chenopodium album, CHEAL); assay: as above; details: post-emerge, phytotoxicity rating 0-100 at 14 days after application
Method in brief: as §2

[12] = system: ivyleaf morningglory (Ipomoea hederacea, IPOHE); assay: as above; details: post-emerge, phytotoxicity rating 0-100 at 14 days after application
Method in brief: as §2

[13] = system: large crabgrass (Digitaria sanguinalis, DIGSA); assay: Pre-emerge test, greenhouse herbicide activity screening; details: pre-emerge, phytotoxicity rating 0-100 at 14 days after application
Method in brief: as §1

[14] = system: common ragweed (Ambrosia artemisizfolia L., AMBEL); assay: as above; details: pre-emerge, phytotoxicity rating 0-100 at 14 days after application
Method in brief: as §1

[15] = system: barnyardgrass (Echinochloa crus-galli, ECHCG); assay: as above; details: pre-emerge, phytotoxicity rating 0-100 at 14 days after application
Method in brief: as §1

[16] = system: green foxtail (Setaria viridis, SETVI); assay: as above; details: pre-emerge, phytotoxicity rating 0-100 at 14 days after application
Method in brief: as §1

[17] = system: sicklepod (Cassia obtusifolia, CASOB); assay: as above; details: pre-emerge, phytotoxicity rating 0-100 at 14 days after application
Method in brief: as §1

[18] = system: johnsongrass (Sorghum halepense, SORHA); assay: as above; details: pre-emerge, phytotoxicity rating 0-100 at 14 days after application
Method in brief: as §1

[19] = system: velvetleaf (Abutilon theophrasti, ABUTH); assay: as above; details: pre-emerge, phytotoxicity rating 0-100 at 14 days after application
Method in brief: as §1

[20] = system: lambsquarters (Chenopodium album, CHEAL); assay: as above; details: pre-emerge, phytotoxicity rating 0-100 at 14 days after application
Method in brief: as §1

[21] = system: ivyleaf morningglory (Ipomoea hederacea, IPOHE); assay: as above; details: pre-emerge, phytotoxicity rating 0-100 at 14 days after application
Method in brief: as §1

[22] = system: upland rice (Oryza sp., var. Tebonnet, RICE); assay: Pre-emerge test, crop safety; details: crop damage, pre-emerge, phytotoxicity rating 0-100 at 14 days after application
Method in brief: as §1

[23] = system: field corn (Zea mays L., var. Dekalb 535, CORN); assay: Pre-emerge test, crop safety; details: crop damage, pre-emerge, phytotoxicity rating 0-100 at 14 days after application
Method in brief: as §1

COc1c(Cl)cc(F)c(-n2ncc(C(F)(F)F)c(C)c2=O)c1NC(=O)c1ccc2ccccc2c1 [11-13]
Post-emerge Herbicidal Activity RICE ([1]; 63 g ai/ha): 45
Post-emerge Herbicidal Activity RICE ([1]; 250 g ai/ha): 65
Post-emerge Herbicidal Activity CORN ([2]; 63 g ai/ha): 45
Post-emerge Herbicidal Activity CORN ([2]; 250 g ai/ha): 45
Pre-emerge Herbicidal Activity AMARE ([3]; rate 63 g ai/ha): 100
Pre-emerge Herbicidal Activity AMARE ([3]; rate 250 g ai/ha): 10
Post-emerge Herbicidal Activity DIGSA ([4]; 63 g ai/ha): 40
Post-emerge Herbicidal Activity DIGSA ([4]; 250 g ai/ha): 60
Post-emerge Herbicidal Activity ECHCG ([5]; 63 g ai/ha): 65
Post-emerge Herbicidal Activity ECHCG ([5]; 250 g ai/ha): 55
Post-emerge Herbicidal Activity SETVI ([6]; 63 g ai/ha): 55
Post-emerge Herbicidal Activity SETVI ([6]; 250 g ai/ha): 40
Post-emerge Herbicidal Activity AMARE ([7]; 63 g ai/ha): 100
Post-emerge Herbicidal Activity AMARE ([7]; 250 g ai/ha): 100
Post-emerge Herbicidal Activity CASOB ([8]; 63 g ai/ha): 85
Post-emerge Herbicidal Activity CASOB ([8]; 250 g ai/ha): 85
Post-emerge Herbicidal Activity SORHA ([9]; 63 g ai/ha): 0
Post-emerge Herbicidal Activity SORHA ([9]; 250 g ai/ha): 15
Post-emerge Herbicidal Activity ABUTH ([10]; 63 g ai/ha): 95
Post-emerge Herbicidal Activity ABUTH ([10]; 250 g ai/ha): 100
Post-emerge Herbicidal Activity CHEAL ([11]; 63 g ai/ha): 100
Post-emerge Herbicidal Activity CHEAL ([11]; 250 g ai/ha): 100
Post-emerge Herbicidal Activity IPOHE ([12]; 63 g ai/ha): 98
Post-emerge Herbicidal Activity IPOHE ([12]; 250 g ai/ha): 98
Pre-emerge Herbicidal Activity DIGSA ([13]; rate 63 g ai/ha): 60
Pre-emerge Herbicidal Activity DIGSA ([13]; rate 250 g ai/ha): 100
Pre-emerge Herbicidal Activity AMBEL ([14]; rate 63 g ai/ha): 30
Pre-emerge Herbicidal Activity AMBEL ([14]; rate 250 g ai/ha): 60
Pre-emerge Herbicidal Activity ECHCG ([15]; rate 63 g ai/ha): 30
Pre-emerge Herbicidal Activity ECHCG ([15]; rate 250 g ai/ha): 80
Pre-emerge Herbicidal Activity SETVI ([16]; rate 63 g ai/ha): 70
Pre-emerge Herbicidal Activity SETVI ([16]; rate 250 g ai/ha): 100
Pre-emerge Herbicidal Activity CASOB ([17]; rate 63 g ai/ha): 0
Pre-emerge Herbicidal Activity CASOB ([17]; rate 250 g ai/ha): 85
Pre-emerge Herbicidal Activity SORHA ([18]; rate 63 g ai/ha): 0
Pre-emerge Herbicidal Activity SORHA ([18]; rate 250 g ai/ha): 40
Pre-emerge Herbicidal Activity ABUTH ([19]; rate 63 g ai/ha): 95
Pre-emerge Herbicidal Activity ABUTH ([19]; rate 250 g ai/ha): 100
Pre-emerge Herbicidal Activity CHEAL ([20]; rate 63 g ai/ha): 100
Pre-emerge Herbicidal Activity CHEAL ([20]; rate 250 g ai/ha): 100
Pre-emerge Herbicidal Activity IPOHE ([21]; rate 63 g ai/ha): 65
Pre-emerge Herbicidal Activity IPOHE ([21]; rate 250 g ai/ha): 80
Pre-emerge Herbicidal Activity RICE ([22]; rate 63 g ai/ha): 0
Pre-emerge Herbicidal Activity RICE ([22]; rate 250 g ai/ha): 15
Pre-emerge Herbicidal Activity CORN ([23]; rate 63 g ai/ha): 0
Pre-emerge Herbicidal Activity CORN ([23]; rate 250 g ai/ha): 0
